Measured values published in PubChem BioAssay AID1963971 (Molecular Pharmacology Branch, DTP, NCI, 2024).

Tested on: 953936-095-R-J2-PDC spheroids with HUVEC/MSC, viability
Assay: Anticancer human tumor 953936-095-R-J2-PDC patient-derived cervical squamous cell carcinoma cell line growth inhibition [PI3K]
Conditions: for IC50: curve of first compound; for viability, T/C: stronger effect = lower value
Summary of the method: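 Targeted small molecules plus PI3K inhibitors, half-log dose series from Cmax (default top 10 microM), were applied to heterotypic spheroids of cancer cells with HUVEC and MSCs. Viability indicated growth inhibition.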

[1] = second compound 0.00316 µM, first compound 0.0316 µM
[2] = second compound 0.00316 µM, first compound 0.1 µM
[3] = second compound 0.01 µM, first compound 0.0316 µM
[4] = second compound 0.01 µM, first compound 0.1 µM
[5] = second compound 0.0316 µM, first compound 0.0316 µM
[6] = second compound 0.0316 µM, first compound 0.1 µM
[7] = second compound 0.1 µM, first compound 0.0316 µM
[8] = second compound 0.1 µM, first compound 0.1 µM
[9] = second compound 0.316 µM, first compound 0.0316 µM
[10] = second compound 0.316 µM, first compound 0.1 µM
[11] = second compound 1 µM, first compound 0.0316 µM
[12] = second compound 1 µM, first compound 0.1 µM
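Further: spheroids exposed to compounds for seven days before read-out.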

SMILES: CC(=O)c1c(C)c2cnc(Nc3ccc(N4CCNCC4)cn3)nc2n(C2CCCC2)c1=O + COc1c(OCCCN2CCOCC2)ccc2c3n(c(=NC(=O)c4cnc(N)nc4)nc12)CCN3
- IC50 (second compound 0.00316 µM): > 0.1 µM
- IC50 (second compound 0.01 µM): > 0.1 µM
- IC50 (second compound 0.0316 µM): < 0.000316 µM
- IC50 (second compound 0.1 µM): < 0.000316 µM
- IC50 (second compound 0.316 µM): < 0.000316 µM
- IC50 (second compound 1 µM): < 0.000316 µM
- viability, T/C (second compound 0.00316 µM, first compound 0.000316 µM): 87.4%
- viability, T/C (second compound 0.00316 µM, first compound 0.001 µM): 85.6%
- viability, T/C (second compound 0.00316 µM, first compound 0.00316 µM): 105%
- viability, T/C (second compound 0.00316 µM, first compound 0.01 µM): 88.4%
- viability, T/C [1]: 94.3%
- viability, T/C [2]: 81.4%
- viability, T/C (second compound 0.01 µM, first compound 0.000316 µM): 71.5%
- viability, T/C (second compound 0.01 µM, first compound 0.001 µM): 77.9%
- viability, T/C (second compound 0.01 µM, first compound 0.00316 µM): 82.6%
- viability, T/C (second compound 0.01 µM, first compound 0.01 µM): 78%
- viability, T/C [3]: 76.9%
- viability, T/C [4]: 66.6%
- viability, T/C (second compound 0.0316 µM, first compound 0.000316 µM): 40.5%
- viability, T/C (second compound 0.0316 µM, first compound 0.001 µM): 40.2%
- viability, T/C (second compound 0.0316 µM, first compound 0.00316 µM): 36.7%
- viability, T/C (second compound 0.0316 µM, first compound 0.01 µM): 40.6%
- viability, T/C [5]: 38.2%
- viability, T/C [6]: 37.1%
- viability, T/C (second compound 0.1 µM, first compound 0.000316 µM): 20.1%
- viability, T/C (second compound 0.1 µM, first compound 0.001 µM): 17.4%
- viability, T/C (second compound 0.1 µM, first compound 0.00316 µM): 18.9%
- viability, T/C (second compound 0.1 µM, first compound 0.01 µM): 19.3%
- viability, T/C [7]: 17.6%
- viability, T/C [8]: 18.4%
- viability, T/C (second compound 0.316 µM, first compound 0.000316 µM): 6.83%
- viability, T/C (second compound 0.316 µM, first compound 0.001 µM): 6.01%
- viability, T/C (second compound 0.316 µM, first compound 0.00316 µM): 6.03%
- viability, T/C (second compound 0.316 µM, first compound 0.01 µM): 7.86%
- viability, T/C [9]: 7.33%
- viability, T/C [10]: 5.96%
- viability, T/C (second compound 1 µM, first compound 0.000316 µM): 1.78%
- viability, T/C (second compound 1 µM, first compound 0.001 µM): 1.73%
- viability, T/C (second compound 1 µM, first compound 0.00316 µM): 1.47%
- viability, T/C (second compound 1 µM, first compound 0.01 µM): 1.54%
- viability, T/C [11]: 2.14%
- viability, T/C [12]: 1.68%

SMILES: CNC(=O)c1ccc(N2C(=S)N(c3ccc(C#N)c(C(F)(F)F)c3)C(=O)C2(C)C)cc1F + COc1c(OCCCN2CCOCC2)ccc2c3n(c(=NC(=O)c4cnc(N)nc4)nc12)CCN3
- IC50 (second compound 0.00316 µM): > 10 µM
- IC50 (second compound 0.01 µM): > 10 µM
- IC50 (second compound 0.0316 µM): < 0.0316 µM
- IC50 (second compound 0.1 µM): < 0.0316 µM
- IC50 (second compound 0.316 µM): < 0.0316 µM
- IC50 (second compound 1 µM): < 0.0316 µM
- viability, T/C [1]: 86.8%
- viability, T/C [2]: 85%
- viability, T/C (second compound 0.00316 µM, first compound 0.316 µM): 92%
- viability, T/C (second compound 0.00316 µM, first compound 1 µM): 89.7%
- viability, T/C (second compound 0.00316 µM, first compound 3.16 µM): 81.6%
- viability, T/C (second compound 0.00316 µM, first compound 10 µM): 70%
- viability, T/C [3]: 72.6%
- viability, T/C [4]: 72.3%
- viability, T/C (second compound 0.01 µM, first compound 0.316 µM): 76.7%
- viability, T/C (second compound 0.01 µM, first compound 1 µM): 66.6%
- viability, T/C (second compound 0.01 µM, first compound 3.16 µM): 74.6%
- viability, T/C (second compound 0.01 µM, first compound 10 µM): 63.9%
- viability, T/C [5]: 42.1%
- viability, T/C [6]: 43%
- viability, T/C (second compound 0.0316 µM, first compound 0.316 µM): 42.3%
- viability, T/C (second compound 0.0316 µM, first compound 1 µM): 45.8%
- viability, T/C (second compound 0.0316 µM, first compound 3.16 µM): 41.6%
- viability, T/C (second compound 0.0316 µM, first compound 10 µM): 37.3%
- viability, T/C [7]: 19.2%
- viability, T/C [8]: 18.7%
- viability, T/C (second compound 0.1 µM, first compound 0.316 µM): 18.4%
- viability, T/C (second compound 0.1 µM, first compound 1 µM): 18%
- viability, T/C (second compound 0.1 µM, first compound 3.16 µM): 19.6%
- viability, T/C (second compound 0.1 µM, first compound 10 µM): 17.2%
- viability, T/C [9]: 6.13%
- viability, T/C [10]: 6.8%
- viability, T/C (second compound 0.316 µM, first compound 0.316 µM): 6.44%
- viability, T/C (second compound 0.316 µM, first compound 1 µM): 6.88%
- viability, T/C (second compound 0.316 µM, first compound 3.16 µM): 8.06%
- viability, T/C (second compound 0.316 µM, first compound 10 µM): 6.65%
- viability, T/C [11]: 1.46%
- viability, T/C [12]: 1.67%
- viability, T/C (second compound 1 µM, first compound 0.316 µM): 1.58%
- viability, T/C (second compound 1 µM, first compound 1 µM): 1.92%
- viability, T/C (second compound 1 µM, first compound 3.16 µM): 1.61%
- viability, T/C (second compound 1 µM, first compound 10 µM): 1.49%

SMILES: Cn1cnc2c(F)c(Nc3ccc(Br)cc3Cl)c(C(=O)NOCCO)cc21 + COc1c(OCCCN2CCOCC2)ccc2c3n(c(=NC(=O)c4cnc(N)nc4)nc12)CCN3
- IC50 (second compound 0.00316 µM): 0.37 µM
- IC50 (second compound 0.01 µM): 0.081 µM
- IC50 (second compound 0.0316 µM): < 0.00949 µM
- IC50 (second compound 0.1 µM): < 0.00949 µM
- IC50 (second compound 0.316 µM): < 0.00949 µM
- IC50 (second compound 1 µM): < 0.00949 µM
- viability, T/C (second compound 0.00316 µM, first compound 0.00949 µM): 65.8%
- viability, T/C (second compound 0.00316 µM, first compound 0.03 µM): 69.6%
- viability, T/C (second compound 0.00316 µM, first compound 0.0949 µM): 52%
- viability, T/C (second compound 0.00316 µM, first compound 0.3 µM): 59.1%
- viability, T/C (second compound 0.00316 µM, first compound 0.949 µM): 36.6%
- viability, T/C (second compound 0.00316 µM, first compound 3 µM): 25.4%
- viability, T/C (second compound 0.01 µM, first compound 0.00949 µM): 63.4%
- viability, T/C (second compound 0.01 µM, first compound 0.03 µM): 58.8%
- viability, T/C (second compound 0.01 µM, first compound 0.0949 µM): 45.9%
- viability, T/C (second compound 0.01 µM, first compound 0.3 µM): 42.1%
- viability, T/C (second compound 0.01 µM, first compound 0.949 µM): 26.2%
- viability, T/C (second compound 0.01 µM, first compound 3 µM): 18.3%
- viability, T/C (second compound 0.0316 µM, first compound 0.00949 µM): 36.7%
- viability, T/C (second compound 0.0316 µM, first compound 0.03 µM): 33.1%
- viability, T/C (second compound 0.0316 µM, first compound 0.0949 µM): 19.7%
- viability, T/C (second compound 0.0316 µM, first compound 0.3 µM): 15.4%
- viability, T/C (second compound 0.0316 µM, first compound 0.949 µM): 7.92%
- viability, T/C (second compound 0.0316 µM, first compound 3 µM): 4.93%
- viability, T/C (second compound 0.1 µM, first compound 0.00949 µM): 12.6%
- viability, T/C (second compound 0.1 µM, first compound 0.03 µM): 8.91%
- viability, T/C (second compound 0.1 µM, first compound 0.0949 µM): 5.78%
- viability, T/C (second compound 0.1 µM, first compound 0.3 µM): 3.64%
- viability, T/C (second compound 0.1 µM, first compound 0.949 µM): 2.7%
- viability, T/C (second compound 0.1 µM, first compound 3 µM): 0.27%
- viability, T/C (second compound 0.316 µM, first compound 0.00949 µM): 3.5%
- viability, T/C (second compound 0.316 µM, first compound 0.03 µM): 2.08%
- viability, T/C (second compound 0.316 µM, first compound 0.0949 µM): 1.09%
- viability, T/C (second compound 0.316 µM, first compound 0.3 µM): 0.45%
- viability, T/C (second compound 0.316 µM, first compound 0.949 µM): 0.15%
- viability, T/C (second compound 0.316 µM, first compound 3 µM): 0.17%
- viability, T/C (second compound 1 µM, first compound 0.00949 µM): 0.66%
- viability, T/C (second compound 1 µM, first compound 0.03 µM): 0.31%
- viability, T/C (second compound 1 µM, first compound 0.0949 µM): 0.21%
- viability, T/C (second compound 1 µM, first compound 0.3 µM): 0.16%
- viability, T/C (second compound 1 µM, first compound 0.949 µM): 0.15%
- viability, T/C (second compound 1 µM, first compound 3 µM): 0.2%
